Measurements reported in patent US7846959B2, “Raf modulators and methods of use” (Exelixis, Inc., priority 2004, dated 2010).

Legend:
c-Raf = c-Raf (Homo sapiens, UniProt P04049); test: Luciferase-coupled chemiluminescence kinase assay (ATP consumption), c-Raf; format: biochemical; settings: read-out: cRaf-1 (inhibition indicated as IC50)
Outline: (§1)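 Compound is first mixed with […] Raf enzyme in 20 mM Tris pH 7.5 containing 10 mM MgCl2, 0.03% TX-100 and 1 mM DTT (30 min, room temperature). ATP then starts a 3 h reaction, and unconsumed ATP is detected by chemiluminescence.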

B-Raf = B-Raf (Homo sapiens, UniProt P15056); test: Luciferase-coupled chemiluminescence kinase assay (ATP consumption), B-Raf; format: biochemical; settings: read-out: bRaf (inhibition indicated as IC50)
Chain of B-Raf (P15056 whole entry): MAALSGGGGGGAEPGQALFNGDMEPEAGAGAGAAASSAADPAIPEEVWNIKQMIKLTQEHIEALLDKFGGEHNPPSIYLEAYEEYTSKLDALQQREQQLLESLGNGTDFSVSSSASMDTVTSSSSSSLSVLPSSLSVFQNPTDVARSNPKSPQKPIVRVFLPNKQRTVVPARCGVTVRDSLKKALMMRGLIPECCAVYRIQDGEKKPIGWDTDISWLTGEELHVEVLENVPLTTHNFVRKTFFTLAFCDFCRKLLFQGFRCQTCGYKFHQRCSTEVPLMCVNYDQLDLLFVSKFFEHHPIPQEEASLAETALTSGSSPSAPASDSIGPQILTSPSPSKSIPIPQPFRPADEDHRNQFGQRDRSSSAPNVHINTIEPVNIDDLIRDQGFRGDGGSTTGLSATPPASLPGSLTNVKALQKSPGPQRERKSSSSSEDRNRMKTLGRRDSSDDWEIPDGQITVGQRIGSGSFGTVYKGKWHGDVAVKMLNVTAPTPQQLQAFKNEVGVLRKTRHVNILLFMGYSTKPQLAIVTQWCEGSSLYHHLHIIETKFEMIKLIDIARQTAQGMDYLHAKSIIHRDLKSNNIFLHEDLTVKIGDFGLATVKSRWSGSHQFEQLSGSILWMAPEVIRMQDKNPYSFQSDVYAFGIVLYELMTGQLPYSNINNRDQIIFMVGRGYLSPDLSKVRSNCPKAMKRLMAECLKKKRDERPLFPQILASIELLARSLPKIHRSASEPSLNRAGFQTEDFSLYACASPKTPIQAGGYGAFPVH
Outline: as §1

Chain of c-Raf (P04049 whole entry): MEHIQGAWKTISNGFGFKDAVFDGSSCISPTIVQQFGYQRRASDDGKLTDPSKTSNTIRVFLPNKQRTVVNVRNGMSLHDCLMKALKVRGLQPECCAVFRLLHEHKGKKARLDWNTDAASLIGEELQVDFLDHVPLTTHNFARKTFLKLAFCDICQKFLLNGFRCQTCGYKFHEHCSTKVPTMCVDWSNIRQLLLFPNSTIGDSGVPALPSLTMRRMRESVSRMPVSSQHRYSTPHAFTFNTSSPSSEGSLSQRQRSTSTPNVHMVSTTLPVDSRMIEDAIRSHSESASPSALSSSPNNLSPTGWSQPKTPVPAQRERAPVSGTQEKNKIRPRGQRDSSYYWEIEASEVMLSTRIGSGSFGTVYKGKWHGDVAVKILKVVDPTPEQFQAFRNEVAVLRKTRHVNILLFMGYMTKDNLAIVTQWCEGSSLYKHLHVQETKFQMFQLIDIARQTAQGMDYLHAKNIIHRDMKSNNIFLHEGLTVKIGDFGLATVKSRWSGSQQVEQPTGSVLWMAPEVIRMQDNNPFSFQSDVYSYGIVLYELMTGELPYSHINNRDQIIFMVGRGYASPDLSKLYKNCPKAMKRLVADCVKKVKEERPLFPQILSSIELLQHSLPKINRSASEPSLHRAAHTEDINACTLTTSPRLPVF

Row | Structure (SMILES) | IC50 (c-Raf) [nM] | IC50 (B-Raf) [nM]
1 | C#Cc1cccc(N2C(=O)c3ccccc3C2c2ccc3[nH]c(NC(=O)OC)nc3c2)c1F (stereo not shown) [Entry 377, methyl {5-[2-(3-ethynyl-2-fluorophenyl)-3-oxo-2,3-dihydro-1H-isoindol-1-yl]-1H-benzimidazol-2-yl}carbamate] | < 100 | < 100
2 | O=C1c2ccccc2C(O)(c2ccc3[nH]c(Nc4ccc(Cl)nn4)nc3c2)N1c1cccc(Cl)c1F (stereo not shown) [Entry 378, 2-(3-chloro-2-fluorophenyl)-3-{2-[(6-chloropyridazin-3-yl)amino]-1H-benzimidazol-5-yl}-3-hydroxy-2,3-dihydro-1H-isoindol-1-one] | 100 to 1000 | 100 to 1000
3 | O=C1c2c(F)ccc(F)c2C(O)(c2ccc3[nH]c(Nc4ncccn4)nc3c2)N1c1cccc(Cl)c1F (stereo not shown) [Entry 379, 2-(3-chloro-2-fluorophenyl)-4,7-difluoro-3-hydroxy-3-[2-(pyrimidin-2-ylamino)-1H-benzimidazol-5-yl]-2,3-dihydro-1H-isoindol-1-one] | < 100 | < 100
4 | COC(=O)Nc1nc2cc(C3(O)c4ccccc4C(=O)N3c3cc(C)ccc3F)ccc2[nH]1 (stereo not shown) [Entry 380, methyl {5-[2-(2-fluoro-5-methylphenyl)-1-hydroxy-3-oxo-2,3-dihydro-1H-isoindol-1-yl]-1H-benzimidazol-2-yl}carbamate] | < 100 | < 100
5 | COC(=O)Nc1nc2cc(C3(O)c4ccccc4C(=O)N3c3cc(OC)ccc3F)ccc2[nH]1 (stereo not shown) [Entry 381, methyl (5-{2-[2-fluoro-5-(methyloxy)phenyl]-1-hydroxy-3-oxo-2,3-dihydro-1H-isoindol-1-yl}-1H-benzimidazol-2-yl)carbamate] | < 100 | < 100
6 | COC(=O)Nc1nc2cc(C3(O)c4ccccc4C(=O)N3c3cc(C)ccc3OC)ccc2[nH]1 (stereo not shown) [Entry 382, methyl (5-{1-hydroxy-2-[5-methyl-2-(methyloxy)phenyl]-3-oxo-2,3-dihydro-1H-isoindol-1-yl}-1H-benzimidazol-2-yl)carbamate] | < 100 | < 100
7 | C#Cc1cc(C)cc(N2C(=O)c3ccccc3C2(O)c2ccc3[nH]c(NC(=O)OC)nc3c2)c1 (stereo not shown) [Entry 383, methyl {5-[2-(3-ethynyl-5-methylphenyl)-1-hydroxy-3-oxo-2,3-dihydro-1H-isoindol-1-yl]-1H-benzimidazol-2-yl}carbamate] | < 100 | < 100
8 | O=C1c2ccccc2C(O)(c2ccc3[nH]c(Nc4ncc(Cl)cn4)nc3c2)N1c1cccc(Cl)c1F (stereo not shown) [Entry 384, 2-(3-chloro-2-fluorophenyl)-3-{2-[(5-chloropyrimidin-2-yl)amino]-1H-benzimidazol-5-yl}-3-hydroxy-2,3-dihydro-1H-isoindol-1-one] | < 100 | < 100
9 | Cc1ccnc(Nc2nc3cc(C4(O)c5ccccc5C(=O)N4c4cccc(Cl)c4F)ccc3[nH]2)n1 (stereo not shown) [Entry 385, 2-(3-chloro-2-fluorophenyl)-3-hydroxy-3-{2-[(4-methylpyrimidin-2-yl)amino]-1H-benzimidazol-5-yl}-2,3-dihydro-1H-isoindol-1-one] | < 100 | < 100
10 | COc1cc(OC)nc(Nc2nc3cc(C4(O)c5ccccc5C(=O)N4c4cccc(Cl)c4F)ccc3[nH]2)n1 (stereo not shown) [Entry 386, 3-(2-{[4,6-bis(methyloxy)pyrimidin-2-yl]amino}-1H-benzimidazol-5-yl)-2-(3-chloro-2-fluorophenyl)-3-hydroxy-2,3-dihydro-1H-isoindol-1-one] | < 100 | < 100
11 | COc1cc(C)nc(Nc2nc3cc(C4(O)c5ccccc5C(=O)N4c4cccc(Cl)c4F)ccc3[nH]2)n1 (stereo not shown) [Entry 387, 2-(3-chloro-2-fluorophenyl)-3-hydroxy-3-(2-{[4-methyl-6-(methyloxy)pyrimidin-2-yl]amino}-1H-benzimidazol-5-yl)-2,3-dihydro-1H-isoindol-1-one] | < 100 | < 100
